Test results from patent US11331375B2, “Compositions and methods for regulating leukocyte adhesion” (University of Virginia Patent Foundation, priority 2015, dated 2022).

Legend:
[1] = system: paired mesenteric arterioles; test: Ex vivo vascular perfusion ATP release assay, mesenteric arterioles; type: cell-based, mouse; details: TNFα 50 ng/mL
Method: (§1) For isolated blood vessel experiments, 2nd order venules or arterioles were dissected from the mouse mesentery circulation and cannulated on glass micropipettes to access the vessel lumen. […] Vessels were then perfused with MOPS PSS containing 300 μM ARL 67156 +/− pharmacological inhibitors and incubated for an additional 20 minutes prior to perfusion with MOPS PSS containing recombinant murine TNFα (R&D Systems). Aliquots of the lumenal perfusate were collected every 5 minutes for a 25-minute period and the ATP concentration was quantified by bioluminescence as described above. Data are expressed as mean±SEM (n=4 independent experiments).

[2] = system: isolated mesenteric venules; test: LDH release assay in perfused venules; type: cell-based, mouse; details: perfusion of TNFα
Method: Isolated mesenteric venules were cannulated and perfused with recombinant mouse TNFα for 20 minutes followed by lysis buffer. Perfusate samples were collected as described above and LDH activity was assayed with the Cytotoxicity Detection Kit Plus (Roche) according to the manufacturer's protocol as an output for cell death. Data are expressed as mean±SEM (n=3 independent experiments).

[3] = system: isolated murine mesenteric venules; test: Ex vivo vascular perfusion ATP release assay, mesenteric venules; type: cell-based, mouse; details: lumenal perfusion
Method: as §1

Panx1 = test: Western blot of pY198Panx1 in isolated mesenteric venules; type: cell-based, mouse; details: mesenteric venules perfused with TNFα 50 ng/mL 30 minutes
Method: (§2) Following stimulation with TNFα (in vitro: 10 ng/mL; ex vivo: 50 ng/mL), confluent endothelial cell monolayers or isolated mesenteric venules were homogenized in ice cold Triton extraction buffer (50 mM Tris-HCL, 150 mM NaCl , 5 mM EDTA, 1% deoxycholate, 1% NP-40 and 1% Triton-X100 in phosphate buffered saline and pH adjusted to 7.4) containing protease and phosphatase inhibitors. Cell/Tissue lysates were incubated with rotation at 4° C. for 20 minutes to solubilize proteins, followed by centrifugation for 5 minutes at 13,000× g to pellet cell debris. Protein concentration was quantified using the BCA method. 15-20 μg of total protein was subjected to SDS gel electrophoresis using 4-12% Bis-Tris gels (Invitrogen) and transferred to nitrocellulose membranes for immunoblotting. Membranes were blocked for 1 hr at room temperature with LiCOR blocking solution, then incubated overnight at 4° C. with primary antibodies against pY416SFKs, (BD Biosciences; 1:1000) pY198Panx1 (Alpha Diagnostic Intl (ADI); 1:1000) and GAPDH (Sigma; 1:10,000) or an antibody against the intracellular loop of Panx1 (Panx1-IL) (ADI; 1:1000) (normalization controls). Membranes were then washed and incubated with LiCOR secondary antibodies (1:10,000) and visualized and quantitated using LiCOR Odyssey. […] Data are expressed as mean±SEM (n=3 independent experiments).

C57B1/6J mice = test: Intravital microscopy of cremaster muscle for leukocyte adhesion and emigration; type: in vivo, mouse; details: topical TNFα on cremaster, after 120 minutes
Method: Mice were prepared for intravital microscopy of the cremaster muscle as described previously^25. Briefly, mice were anesthetized with ketamine hydrochloride (150 mg/kg, IP) and xylazine (7.5 mg/kg, IP). The cremaster was isolated, laid over a viewing pedestal, superfused with bicarbonate-buffered saline. After 30 min equilibration, a venule with a wall shear rate (WSR) of ≥500/s, diameter between 20 μm and 40 μm, and the least number of adherent and emigrated leukocytes was chosen for further study. A 1 min baseline recording was made, after which superfusion was stopped, and 50 μl TNFα (1.7 ng/ml in 0.1% BSA) or vehicle control was added under a saran wrap cover every 30 min. 1 min recordings were made just prior to each addition, for 3 hrs. The TNFα was initially reconstituted in PBS at 3.4 ng/ml and 150 μl aliquots were frozen. An aliquot was mixed 1:1 with BBS containing 0.2% BSA at the time of the experiment. Leukocyte adhesion and emigration were determined by off-line analysis. Leukocytes were considered adherent if they stopped for at least 30 s (expressed as #/mm^2 vessel wall), and emigrated leukocytes were leukocytes identified in the interstitium (expressed as #cells/mm^2 tissue). Data are expressed as mean±SEM (n=6-7 independent animals/group).

Panx1 channels in HUVEC = molecular target: T1, Panx1 channels in HUVEC (Homo sapiens, UniProt Q96RD7); test: YO-PRO-1 dye uptake assay; type: cell-based; details: TNFα 30 minutes, dose dependent
T1 construct: Primary human umbilical vein endothelial cells (HUVEC) were purchased from Cell Applications; PromoCell 200K-05; C-12231; host or cells: HUVEC, HSaVEC (primary human venous endothelial cells)
Method: HUVECs were cultured on poly-L-lysine coated coverslips and grown to confluence in EGM. Cells were washed three times with 1× PBS and incubated in fresh EGM for 30 minutes prior to stimulation. To stimulate YO-PRO-1 dye uptake, YO-PRO-1 (1 μM) was added to the media and EC monolayers were treated with TNFα at a range of concentrations (0.1 ng/mL-100 ng/mL) for 30 minutes. At the end of the stimulation, cells were washed 3× with 1× PBS and immediately fixed in 4% PFA. Coverslips were then mounted on microscope slides with DAPI ProlongGold mounting agent and visualized on an Olympus IX81 laser scanning confocal microscope. Dye uptake was quantified as the intensity of YO-PRO-1 fluorescence over time using ImageJ software. For time course analysis, YO-PRO-1 was added to the culture media at various time points after TNFα stimulation and incubated to the 30-minute time point. Data are expressed as mean±SEM (n=3 independent experiments).

Src Family Kinases (SFK) = test: Western blot of SFK activation in isolated mesenteric venules; type: cell-based, mouse; details: mesenteric venules perfused with TNFα 50 ng/mL 30 minutes
Method: as §2

T1 sequence (Q96RD7 whole entry): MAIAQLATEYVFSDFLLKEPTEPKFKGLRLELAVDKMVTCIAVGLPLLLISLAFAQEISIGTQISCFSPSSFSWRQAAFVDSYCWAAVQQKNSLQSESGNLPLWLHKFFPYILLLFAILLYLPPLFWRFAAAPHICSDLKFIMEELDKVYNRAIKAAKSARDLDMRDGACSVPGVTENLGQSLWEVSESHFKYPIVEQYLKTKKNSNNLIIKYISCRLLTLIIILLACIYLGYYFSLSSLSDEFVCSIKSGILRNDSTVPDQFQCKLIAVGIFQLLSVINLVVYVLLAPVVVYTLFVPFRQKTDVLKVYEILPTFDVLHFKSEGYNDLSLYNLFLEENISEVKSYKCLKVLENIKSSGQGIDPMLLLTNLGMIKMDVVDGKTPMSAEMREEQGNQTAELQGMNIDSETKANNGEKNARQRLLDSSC

## TNFα
[1]
  ATP accumulation in the perfusate on cytokine perfusion: absent
[2]
  cell death (LDH accumulation in perfusates): did not induce cell death
[3]
  ATP accumulation in the perfusate on cytokine perfusion: time- and dose-dependent increase
Panx1
  phosphorylation of Panx1: promoted phosphorylation of Panx1
C57B1/6J mice
  increase of leukocyte adhesion: ~2.5 fold
  increase of leukocyte emigration: ~3.5 fold
Panx1 channels in HUVEC
  intracellular YO-PRO-1 dye accumulation: significant increase
Src Family Kinases (SFK)
  SFK activation: increasing SFK activation
